Test results: US7781393B2, “Methods for inhibiting tumor cell growth” (Dana-Farber Cancer Institute, Inc., priority 2004, dated 2010)

Tests used:
MM1S-LucNeo cells = experiment: Orthotopic mouse model of multiple myeloma, bioluminescence imaging; format: in vivo; details: 50 mg/kg PO BID, after 8 days of treatment, p=0.58
Experimental: MM1S-LucNeo cells were created by transducing MM1S cells with a retrovirus encoding the firefly luciferase coding region fused to neomycin phosphotransferase (pMMP-LucNeo). Transduced cells were selected by growth in medium (RPMI, 10% FBS, penicillin/streptomycin) containing G418 at an effective concentration of 1 mg/ml.
NOD-SCID mice (Jackson Laboratory) were sublethally irradiated with 300 rads from a ^137CS source. Three hours after irradiation, a total of 5×10^6 MM1S-LucNeo cells in mid-logarithmic growth phase were injected via tail vein into each mouse in a volume of 300 μL of PBS. Mice were maintained under sterile conditions.
Bioluminescence imaging was performed with a Xenogen In Vivo Imaging System (IVIS 100). Mice were anesthetized by IP injection of ketamine 150 mg/kg and xylazine 12 mg/kg, and simultaneously D-luciferin 50 mg/kg was administered by IP injection. Imaging was performed 15 minutes after D-luciferin injection with a setting of 2 minutes, and a bin setting of 2. Mice were allowed to recover under isothermic conditions. Mice were imaged weekly beginning 2 weeks after tumor inoculation. Mice with increasing tumor burden were divided into 2 statistically equivalent cohorts, and treatment was started 4 weeks after tumor inoculation. […]

BM stromal cells (BMSCs) = experiment: Viability of bone marrow stromal cells (MTT); format: cell-based, human; details: 0.5 μM
Experimental: Primary MM patient samples were freshly isolated from bone marrow aspirates from patients undergoing diagnostic or restaging bone marrow aspirates under an IRB-approved protocol. MM cells were purified using custom-made RosetteSep cocktail of monoclonal antibodies (mAb's) (StemCell Technologies Inc, Vancouver, Canada) for negative selection of CD138^+ MM cells. The CD138^− fraction of the MM cell purification process was cultured in 20% FBS-supplemented media for isolation of the adherent bone marrow stromal cells. Peripheral blood B cells were isolated by ficoll-density centrifugation of peripheral blood samples from MM patients. […] […] At the end of each treatment, cells were incubated with 1 mg/ml MTT for 4 hours at 37° C.; a mixture of isopropanol and 1N HCl (23:2, v/v) was then added under vigorous pipetting to dissolve the formazan crystals. Dye absorbance (A) in viable cells was measured at 570 nm, with 630 nm as a reference wavelength. Cell survival was estimated as a percentage of the value of untreated controls. All experiments were repeated at least three times, and each experimental condition was repeated at least in quadruplicate wells in each experiment.

peripheral blood B-cells = experiment: Viability of peripheral blood B-cells; format: cell-based, human; details: 0.5 μM
Experimental: Primary MM patient samples were freshly isolated from bone marrow aspirates from patients undergoing diagnostic or restaging bone marrow aspirates under an IRB-approved protocol. MM cells were purified using custom-made RosetteSep cocktail of monoclonal antibodies (mAb's) (StemCell Technologies Inc, Vancouver, Canada) for negative selection of CD138^+ MM cells. The CD138^− fraction of the MM cell purification process was cultured in 20% FBS-supplemented media for isolation of the adherent bone marrow stromal cells. Peripheral blood B cells were isolated by ficoll-density centrifugation of peripheral blood samples from MM patients.
To assess whether MM cells are more susceptible to inhibition of IGF-1R signaling, than normal cells in their immediate environment, primary MM cells, normal bone marrow stromal cells and peripheral blood B-cells, were exposed to 0.5 μM NVP-AEW541.

SMILES: Nc1ncnc2c1c(-c1cccc(OCc3ccccc3)c1)cn2[C@H]1C[C@@H](CN2CCC2)C1 [NVP-AEW541]
- body weight (MM1S-LucNeo cells): no difference in body weight
- viability of bone marrow stromal cells (BM stromal cells (BMSCs)): no effect on the viability
- viability of peripheral blood B-cells (peripheral blood B-cells): no effect on the viability
